Source: the supplement of paper PMC4862054

Tests used:
Settings in all cases: incubation time: 72 h
[1] = system: CAL-148; test: drug sensitivity score (DSS), CellTiter-Glo (DSS (AUC-based score)); higher = stronger drug effect (viability inhibition or cytotoxicity); extreme values may be limits of the assay
In short: (§1)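 Using 20 µl of cell suspension per well, breast cancer cell lines were seeded into 384-well plates pre-loaded with compound at 5 concentrations in 10-fold steps across a compound-specific 10,000-fold range. Incubation lasted 72 h, after which CellTox Green fluorescence at 485/520 nm and then CellTiter-Glo luminescence, following 10 min at room temperature, were recorded. Each plate was normalised to 0.1 % DMSO and a positive kill control before the drug sensitivity score was derived from the area under the fitted dose-response curve.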

[2] = system: CAL-85-1; test: as above
In short: as §1

[3] = system: MDA-MB-231; test: as above
In short: as §1

[4] = system: DU-4475; test: as above
In short: as §1

[5] = system: CAL-120; test: as above
In short: as §1

[6] = system: HCC1599; test: as above
In short: as §1

[7] = system: MDA-MB-436; test: as above
In short: as §1

[8] = system: HCC1937; test: as above
In short: as §1

[9] = system: SK-BR-3; test: as above
In short: as §1

[10] = system: Hs578T; test: as above
In short: as §1

[11] = system: MFM-223; test: as above
In short: as §1

[12] = system: MDA-MB-453; test: as above
In short: as §1

[13] = system: BT-549; test: as above
In short: as §1

[14] = system: BT-474; test: as above
In short: as §1

[15] = system: HDQ-P1; test: as above
In short: as §1

[16] = system: CAL-51; test: as above
In short: as §1

[17] = system: CAL-85-1; test: normalised viability (% of control), CellTiter-Blue; higher = more viable cells (about 100 = DMSO control)
In short: (§2)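 After 72 h on compound-loaded 384-well plates, breast cancer cell lines received 2.5 µl CellTiter-Blue reagent for 2 h at 37 °C. Fluorescence at 560/590 nm was scaled per plate so that vehicle was 100 and a positive kill control was 0. The value stands for normalised viability at a single listed concentration of the series.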

[18] = system: HCC1599; test: as above
In short: as §2

[19] = system: MDA-MB-436; test: as above
In short: as §2

[20] = system: HCC1937; test: as above
In short: as §2

[21] = system: SK-BR-3; test: as above
In short: as §2

[22] = system: HCC1143; test: as above
In short: as §2

[23] = system: BT-474; test: as above
In short: as §2

[24] = system: HDQ-P1; test: as above
In short: as §2

[25] = system: CAL-51; test: as above
In short: as §2

CCNC(=O)CCC/C=C\C[C@@H]1[C@@H](/C=C/[C@@H](O)CCc2ccccc2)[C@H](O)C[C@@H]1O [Bimatoprost]
Settings	drug sensitivity score
[1]	0
[2]	0
[3]	0
[4]	0
[5]	0
[6]	0
[7]	0
[8]	0
[9]	0
[10]	0
[11]	0
[12]	0
[13]	0
[14]	0
[15]	0
[16]	0

normalised viability [%]
Settings	[17]	[18]	[19]	[20]	[21]	[22]	[23]	[24]	[25]
1.65 nM	97.1	–	–	–	–	–	–	111	124
5.5 nM	–	111	111	106	98.7	102	112	–	–
16.5 nM	92.5	–	–	–	–	–	–	103	114
55 nM	101	–	–	–	–	–	–	102	112
550 nM	–	111	111	99.9	110	104	106	–	–
5500 nM	–	112	103	89.6	97	94.2	127	–	–
